Measurements as given in patent US20040106545A1, “Compounds and methods for modulating cell adhesion” (priority 1996, published 2004).

Key:
SKOV3 tumors = experiment: Induction of apoptosis in SKOV3 tumors in nude mice (Apoptag); type: in vivo, mouse
Description: SKOV3 cells (ATCC) were grown to 70% confluence in Minimum Essential Medium (Life Technologies, Grand Island, N.Y.) supplemented with 10% Fetal Bovine Serum (Wisent, St. Bruno, Quebec) in a humidified atmosphere containing 5% CO2. Cells were then dissociated with 0.02% PBS/EDTA. Total cell count and viable cell number was determined by trypan blue stain and a hemacytometer.
Approximately 1×10^7 cells were resuspended in 400 μl saline and injected in 6-week-old CD-1 nude mice (female, Charles River) subcutaneously. After 20 days of continuous tumor growth, tumor size was about 4.0 mm. The tumor-bearing animals were then injected intraperitoneally every day with 20 mg/kg of the representative peptide modulating agent N—Ac-CHAVC-NH2 (SEQ ID NO:10) or saline, for 48 hours, 96 hours, 120 hours or 168 hours. […]
Tumor tissue was dissected and fixed in PBS with 4% paraformaldehyde for 48 hours. Specimens were then dehydrated in a series of alcohol incubations, and embedded in paraffin wax. Apoptosis was assessed using the Apoptag kit (Intergen, Purchase N.Y.) according to the manufacturer's protocol, with slight modifications. More specifically, sections were deparaffinized and re-hydrated. After a five minute wash with PBS, the slides were treated with 20 μg/ml Proteinase K in PBS for 15 minutes at room temperature. This was followed by two washes with distilled water (2 minutes each wash). […]

OVCAR-3 = experiment: Disruption of OVCAR-3 ovarian cancer cell adhesion; type: cell-based, human; conditions: 1, 0.1, or 0.01 mg/ml, up to 48 hours
Description: The human ovarian cancer cell line OVCAR-3, which expresses E-cadherin, was used in these experiments. Cells were cultured in RPMI supplemented with insulin and containing 20% FCS. Cells were grown in T-250 culture flasks and maintained by periodic subculturing. Cells were harvested from flasks and seeded in individual wells of 96-well culture dishes (surface area of each well was 0.32 cm^2) at a density of 50,000 cells per well in 0.1 ml media containing the cyclic peptides (at concentrations of 1, 0.1, or 0.01 mg/ml). Media control wells were also established. Cultures were evaluated periodically by microscopic examination under both bright field and phase contrast conditions, and were maintained for 48 hours.

mice = experiment: Acute toxicity study in mice; type: in vivo, mouse
Description: Mice were injected intraperitoneally for seven consecutive days with 20 mg/kg of N—Ac-CHAVC-NH2 (SEQ ID NO:10) and sacrificed 24 hr after treatment.
Mice were injected intraperitoneally with 125 mg/kg of N—Ac-CHAVC-NH2 (SEQ ID NO:10) for three consecutive days and sacrificed on the fourth day.
Mice were injected intravenously with either a saline control or 200 mg/kg of N—Ac-CHAVC-NH2 (SEQ ID NO:10). Mice were sacrificed after 24 hours, or allowed a 14-day recovery period.

[1] = test system: Human saphenous vein vascular smooth muscle cells; experiment: Vascular smooth muscle cell apoptosis at migrating wound edge, in situ end labeling; type: cell-based; conditions: 1 mg/mL, 24 hours after wounding, n=4, p<0.05
Description: Human saphenous vein vascular smooth muscle cells were explanted from surplus segments of vein from patients undergoing coronary artery bypass surgery. Cells were maintained in Dulbecco's modified essential medium supplemented with […], 2 mmol/L L-glutamine and 10% fetal calf serum and were grown to confluence on glass coverslips. The cell layer was then subjected to scrape-wounding by drawing a fine cell scraper across the coverslip. Proliferation of the vascular smooth muscle cells was inhibited by addition of 2 mM hydroxyurea to the culture media. Vascular smooth muscle cells that are treated in this manner respond to the wounding of the confluent monolayer by migrating into the wound (Hammerle et al (1991) Vasa 20, 207-215). The percentage of apoptotic cells in the migrating edge (outermost 100 μm from the wound) was assessed by in situ end labeling at 24 hours after wounding (as in George et al (2001) Gene Therapy 8 668-676).

## CC(=O)N[C@H]1CSSC[C@@H](C(N)=O)NC(=O)[C@H](C(C)C)NC(=O)[C@H](C)NC(=O)[C@H](Cc2c[nH]cn2)NC1=O [N—Ac—CHAVC—NH2, N-Ac-Cys-His-Ala-Val-Cys-NH2]
SKOV3 tumors; 20 mg/kg ip every day for 48, 96, 120 or 168 hours
  apoptotic cells in tumor sections: show an increase in apoptotic cells with longer treatment
SKOV3 tumors; 20 mg/kg once daily for four days, sacrificed 11 days after the last treatment
  apoptotic cells in tumor sections: extensive area of apoptotic cells within the center of the tumor
OVCAR-3
  disruption of OVCAR-3 adhesion: inactive
mice; intraperitoneally, 125 mg/kg, three consecutive days, sacrificed on the fourth day
  gross or histopathological findings: No gross or histopathological findings related to the treatment were found
mice; intraperitoneally, seven consecutive days, 20 mg/kg, sacrificed 24 hr after treatment
  gross or histopathological findings: No gross or histopathological findings related to the treatment were found
mice; intravenously, 200 mg/kg
  mortality: no animals died during the study
mice; intravenously, 200 mg/kg, sacrificed after 24 hours or 14-day recovery
  gross or histopathological findings: no gross or histopathological findings related to the treatment were found
[1]
  increase in apoptosis at wound edge: 3±1 fold
